Measurements reported in US6376521B1, “A3 adenosine receptor antagonists” (The United States of America as represented by the …, priority 1998, dated 2002).
Where two headings read alike, the source gives them in different places.

Tests used:
A1 adenosine receptors = target: T1, A1 adenosine receptors (Rattus norvegicus, UniProt P25099); test: Displacement of specific [3H]R-PIA binding in rat brain membranes; details: for Ki: [3H]R-PIA, rat brain membranes, n = 3-5, read-out: rA1 Ki ± S.E.M.; for inhibition at 100 µM: read-out: rA1 % inhibition (percentage of specific binding displaced)
T1 construct: from tissue
T1 sequence (P25099 1-326): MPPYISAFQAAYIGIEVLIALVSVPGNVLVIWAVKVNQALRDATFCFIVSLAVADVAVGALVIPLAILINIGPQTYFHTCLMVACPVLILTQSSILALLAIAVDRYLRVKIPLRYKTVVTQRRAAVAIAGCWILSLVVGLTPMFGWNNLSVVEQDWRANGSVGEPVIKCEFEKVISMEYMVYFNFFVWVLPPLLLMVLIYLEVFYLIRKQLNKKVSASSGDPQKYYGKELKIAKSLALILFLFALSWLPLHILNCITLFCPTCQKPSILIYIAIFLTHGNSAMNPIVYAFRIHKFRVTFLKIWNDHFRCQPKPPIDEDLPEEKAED

A2A adenosine receptors = target: T2, A2A adenosine receptors (Rattus norvegicus, UniProt P30543); test: Displacement of specific [3H]CGS 21680 binding in rat striatal membranes; details: for Ki: [3H]CGS 21680, rat striatal membranes, n = 3-6, read-out: rA2A Ki ± S.E.M.; for inhibition at 100 µM: read-out: rA2A % inhibition (percentage of specific binding displaced)
T2 construct: from tissue
T2 sequence (P30543 whole entry): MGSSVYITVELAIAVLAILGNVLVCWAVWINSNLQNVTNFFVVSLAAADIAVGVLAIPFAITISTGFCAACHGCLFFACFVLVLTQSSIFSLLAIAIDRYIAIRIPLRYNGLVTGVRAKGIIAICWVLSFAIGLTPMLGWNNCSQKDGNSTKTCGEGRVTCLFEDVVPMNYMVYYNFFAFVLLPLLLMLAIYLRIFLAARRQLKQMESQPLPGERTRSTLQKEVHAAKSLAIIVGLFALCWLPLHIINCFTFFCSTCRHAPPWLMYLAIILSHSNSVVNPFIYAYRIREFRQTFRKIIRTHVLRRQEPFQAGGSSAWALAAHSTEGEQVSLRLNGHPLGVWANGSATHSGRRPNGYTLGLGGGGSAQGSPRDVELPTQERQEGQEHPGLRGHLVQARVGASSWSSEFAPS

human A3 receptors = target: T3, human A3 receptors (Homo sapiens, UniProt P0DMS8); test: Displacement of specific [125I]AB-MECA binding at human A3 receptors expressed in HEK cells, in membranes; details: for Ki: [125I]AB-MECA, HEK cell membranes, n = 3-4, read-out: hA3 Ki ± S.E.M.; for rA1/hA3: ratio of affinities rat A1 vs human A3
T3 construct: expressed in transfected cells
T3 sequence (P0DMS8 1-318): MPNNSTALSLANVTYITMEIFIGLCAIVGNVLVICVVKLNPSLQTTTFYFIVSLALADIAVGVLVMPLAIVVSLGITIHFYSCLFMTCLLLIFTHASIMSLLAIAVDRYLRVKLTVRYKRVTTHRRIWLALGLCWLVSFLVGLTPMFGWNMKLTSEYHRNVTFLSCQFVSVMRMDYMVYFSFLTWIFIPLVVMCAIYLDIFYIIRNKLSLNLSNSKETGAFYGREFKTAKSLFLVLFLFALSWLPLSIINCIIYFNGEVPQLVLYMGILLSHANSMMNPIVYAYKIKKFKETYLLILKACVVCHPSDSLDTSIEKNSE

rat A3 receptors = target: T4, rat A3 receptors (Rattus norvegicus, UniProt P28647); test: Displacement of specific [125I]AB-MECA binding at rat A3 receptors stably expressed in CHO cells; details: for rA3/hA3: ratio of affinities at rat vs. human A3 receptors; for rA1/rA3: ratio of affinities rat A1 vs rat A3
T4 construct: expressed in transfected cells
T4 sequence (P28647 1-320): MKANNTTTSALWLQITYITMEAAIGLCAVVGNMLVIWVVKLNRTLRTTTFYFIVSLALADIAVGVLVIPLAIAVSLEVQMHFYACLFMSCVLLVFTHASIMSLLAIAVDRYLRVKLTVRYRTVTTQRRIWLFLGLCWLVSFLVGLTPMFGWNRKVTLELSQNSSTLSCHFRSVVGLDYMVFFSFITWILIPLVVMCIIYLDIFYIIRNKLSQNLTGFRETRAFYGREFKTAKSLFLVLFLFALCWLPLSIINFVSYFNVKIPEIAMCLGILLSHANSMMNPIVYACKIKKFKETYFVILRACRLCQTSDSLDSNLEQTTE

[1] = Table 4, [125I]AB-MECA, CHO cells, n = 3-5, read-out: rA3 Ki

Row | Ki (A1 adenosine receptors; Table 2, compounds 33-58) [µM] | Ki (A2A adenosine receptors; Table 2, compounds 33-58) [µM] | Ki (human A3 receptors; Table 2, compounds 33-58) [µM] | rA1/hA3 (human A3 receptors; Table 2) | Ki (rat A3 receptors; [1]) [µM] | rA3/hA3 (rat A3 receptors; Table 4) | rA1/rA3 (rat A3 receptors; Table 4) | Compound | other results
1 | 41.4 ± 11.9 | 24.1 ± 7.9 | – | – | – | – | – | CCCOC(=O)c1c(-c2cccc(Cl)c2)nc(CC)c(C(=O)SCCC)c1CC [Compound 54, 5-Propyl 2,4-diethyl-3-propylsulfanylcarbonyl-6-(m-chlorophenyl)pyridine-5-carboxylate] | Ki (rat A3 receptors): 0.814 ± 0.037 µM
2 | 18.2 ± 9 | – | 0.0245 ± 0.004 | 7400 | 0.113 ± 0.012 | 6.0 | 140 | CCCOC(=O)c1c(-c2ccccc2)nc(CC)c(C(=O)SCC)c1CCC [Compound 49b, 5-Propyl 2-ethyl-4-propyl-3-(ethylsulfanylcarbonyl)-6-phenylpyridine-5-carboxylate] | rA2A displacement of specific binding (class d) (A2A adenosine receptors; Table 2, at 10^−4 M): d (10^−4) (Displacement of <10% of specific binding at the indicated concentration (M).); affinity at rat and human A3 receptors (in words) (rat A3 receptors; both species): high affinity at both species
3 | – | – | – | – | 2.52 ± 0.88 | 2.8 | >30 | CCOC(=O)C1=C(c2ccccc2)NC(CC)=C(C(=O)SCC)C1CC (racemic) [Compound 75, 5-Ethyl 2,4-diethyl-6-phenyl-3-(ethylsulfanylcarbonyl)-1,4-(±)-dihydropyridine-5-carboxylate] | inhibition at 100 µM (A1 adenosine receptors; Table 3, at 10^−4 M): 34 ± 7%; Ki (A2A adenosine receptors; Table 3): 29.1 ± 9.9 µM; Ki (human A3 receptors; Table 3): 0.907 ± 0.044 µM; rA1/hA3 (human A3 receptors; Table 3): >50
4 | 40.3 ± 7.4 | – | 0.035 ± 0.0091 | 1200 | 2.26 ± 0.05 | 64 | 18 | CCCCc1nc(-c2ccccc2)c(C(=O)OCC)c(CC)c1C(=O)SCC [Compound 57, 5-Ethyl 2-butyl-4-ethyl-3-(ethylsulfanylcarbonyl)-6-phenylpyridine-5-carboxylate] | rA2A displacement of specific binding (class d) (A2A adenosine receptors; Table 2, at 10^−4 M): d (10^−4) (Displacement of <10% of specific binding at the indicated concentration (M).)
5 | – | – | – | – | 4.6 ± 0.38 | – | – | CCOC(=O)C1=C(c2ccccc2)NC(C)=C(C(=O)SCC)C1CC (racemic) [Compound 62, 5-Ethel 2-methyl-4ethyl-6-phenyl-3-(ethylsulfanylcarbonyl)-1,4-(±)-dihydropyridine-5-carboxylate] | Ki (A1 adenosine receptors; Table 3): 35.4 ± 4.5 µM; Ki (A2A adenosine receptors; Table 3): 54.8 ± 18.8 µM
6 | 14.8 ± 3.5 | 14.9 ± 4.1 | 0.0429 ± 0.0088 | 340 | 1.47 ± 0.34 | 34 | 10 | CCOC(=O)c1c(-c2ccccc2)nc(C)c(C(=O)SCC)c1CC [Compound 36, 5-Ethyl 2-methyl-4-ethyl-3-(ethylsulfanylcarbonyl)-6-phenylpyridine-5-carboxylate] | –
7 | – | – | – | – | 2.73 ± 0.14 | 1.3 | >30 | CCCC1=C(C(=O)SCC)C(CC)C(C(=O)OCC)=C(c2ccccc2)N1 (racemic) [Compound 76, 5-Ethyl 2-propyl-4-ethyl-6-phenyl-3-(ethylsulfanylcarbonyl)-1,4-(±)-dihydropyridine-5-carboxylate] | inhibition at 100 µM (A1 adenosine receptors; Table 3, at 10^−4 M): 26 ± 19%; rA2A displacement of specific binding (class d) (A2A adenosine receptors; Table 3, at 10^−4 M): d (10^−4) (Displacement of < 10% of specific binding at the indicated concentration (M).); Ki (human A3 receptors; Table 3): 2.09 ± 0.04 µM; rA1/hA3 (human A3 receptors; Table 3): >20
8 | 8.22 ± 1.21 | 15.7 ± 4.4 | 0.0159 ± 0.0054 | 520 | 0.294 ± 0.006 | 18 | 28 | CCCSC(=O)c1c(CC)nc(-c2ccccc2)c(C(=O)OCC)c1CC [Compound 53, 5-Ethyl 2,4-diethyl-3-propylsulfanylcarbonyl-6-phenylpyridine-5-carboxylate] | –
9 | – | 12.8 ± 2.9 | 2.61 ± 0.96 | >40 | 1.8 ± 0.32 | 0.69 | >50 | CCSC(=O)c1c(C)nc(-c2ccccc2)c(C(=O)OCc2ccccc2)c1CC [Compound 39, 5-Benzyl 2-methyl-4-ethyl-3-(ethylsulfanylcarbonyl)-6-phenylpyridine-5-carboxylate] | rA1 percentage of specific binding displaced (A1 adenosine receptors; Table 2, at 10^−4 M): 20 ± 8% (10^−4)
10 | 8.2 ± 2.96 | 8.91 ± 0.97 | 0.0134 ± 0.0015 | 610 | 0.44 ± 0.033 | 33 | 19 | CCOC(=O)c1c(-c2cccc(Cl)c2)nc(CC)c(C(=O)SCC)c1CC [Compound 51, 5-Ethyl 2,4-diethyl-3-(ethylsulfanylcarbonyl)-6-(m-chlorophenyl)pyridine-5-carboxylate] | –
11 | – | – | – | – | 3.1 ± 0.78 | – | – | CCCC1C(C(=O)SCC)=C(C)NC(c2ccccc2)=C1C(=O)OCC (racemic) [Compound 64, 5-Ethyl 2-methyl-4-propyl-6-phenyl-3-(ethylsulfanylcarbonyl)-1,4-(±)-dihydropyridine-5-carboxylate] | inhibition at 100 µM (A1 adenosine receptors; Table 3, at 10^−4 M): 48 ± 5%; inhibition at 100 µM (A2A adenosine receptors; Table 3, at 10^−4 M): 29 ± 10%
12 | – | – | – | >20 | – | – | – | CCCOC(=O)c1c(-c2ccccc2)nc(CC)c(C(=O)SCCOC2CCCCO2)c1CCC (stereo not shown) [Compound 13] | rA1 percentage of specific binding displaced (A1 adenosine receptors; Table 2, at 10^−4 M): 18 ± 1% (10^−4); rA2A displacement of specific binding (class d) (A2A adenosine receptors; Table 2, at 10^−4 M): d (10^−4) (Displacement of <10% of specific binding at the indicated concentration (M).)
13 | – | – | – | – | – | – | – | CCOC(=O)C1=C(C)NC(c2ccccc2)=C(C(=O)OCC)C1C=O (racemic) [Compound 67, 3,5-Diethyl 2-methyl-6-phenyl-4-formyl-1,4(±)-dihydropyridine-3,5-dicarboxylate] | inhibition at 100 µM (A1 adenosine receptors; Table 3, at 10^−4 M): 26 ± 6%; inhibition at 100 µM (A2A adenosine receptors; Table 3, at 10^−4 M): 32 ± 15%; Ki (human A3 receptors; Table 3): 15.6 ± 5.4 µM; rA1/hA3 (human A3 receptors; Table 3): >6
14 | 56.2 ± 20.8 | 22.9 ± 5 | 3.85 ± 0.79 | 15 | – | – | – | CCOC(=O)c1c(C)nc(C2CCCC2)c(C(=O)OCc2ccccc2)c1C#Cc1ccccc1 [Compound 45, 3-Ethyl 5-benzyl 2-methyl-4-phenylethynyl-6-cyclopentylpyridine-3,5-dicarboxylate] | –
15 | 10.1 ± 2.1 | 12.6 ± 1.7 | 0.0168 ± 0.002 | 600 | – | – | – | CCOC(=O)c1c(-c2ccccc2)nc(CCOC)c(C(=O)SCC)c1CC [Compound 56, 5-Ethyl 2-(2-methoxylethyl)-4-ethyl-3-(ethylsulfanylcarbonyl)-6-phenylpyridine-5-carboxylate] | –
16 | – | 7.98 ± 1.36 | 0.165 ± 0.012 | >500 | – | – | – | CCOC(=O)c1c(-c2ccccc2)nc(C)c(C(=O)SCCOC)c1CC [Compound 37, 5-Ethyl 2-methyl-4-ethyl-3-[2-methoxy-(ethylsulfanylcarbonyl)]-6-phenylpyridine-5-carboxylate] | rA1 percentage of specific binding displaced (A1 adenosine receptors; Table 2, at 10^−4 M): 36 ± 11% (10^−4)
17 | 5.05 ± 0.54 | 24.5 ± 8.5 | 0.215 ± 0.022 | 23 | – | – | – | CCCOC(=O)c1c(C)nc(-c2ccccc2)c(C(=O)OCC)c1C [Compound 34, 3-Propyl 5-ethyl 2,4-dimethyl-6-phenylpyridine-3,5-dicarboxylate] | –
18 | – | 27.6 ± 12 | 2.41 ± 0.59 | – | – | – | – | CCOC(=O)c1c(C)nc(C2CCC2)c(C(=O)OCc2ccccc2)c1C#Cc1ccccc1 [Compound 44, 3-Ethyl 5-benzyl 2-methyl-4-phenylethynyl-6-cyclobutylpyridine-3,5-dicarboxylate] | rA1 displacement of specific binding (class d) (A1 adenosine receptors; Table 2, at 10^−4 M): d (10^−4) (Displacement of <10% of specific binding at the indicated concentration (M).)

Row | Compound | Ki (A1 adenosine receptors; Table 2, compounds 33-58) [µM] | Ki (A2A adenosine receptors; Table 2, compounds 33-58) [µM] | Ki (human A3 receptors; Table 2, compounds 33-58) [µM] | rA1/hA3 (human A3 receptors; Table 2) | Ki (rat A3 receptors; [1]) [µM] | rA3/hA3 (rat A3 receptors; Table 4) | rA1/rA3 (rat A3 receptors; Table 4) | other results
19 | CCCc1nc(-c2ccccc2)c(C(=O)OCC)c(CC)c1C(=O)SCC [Compound 55, 5-Ethyl 2-propyl-4-ethyl-3-(ethylsulfanylcarbonyl)-6-phenylpyridine-5-carboxylate] | 16.7 ± 3 | 2.82 ± 0.82 | 0.0333 ± 0.0107 | 500 | 0.59 ± 0.04 | 18 | 28 | –
20 | CCOC(=O)c1c(C)nc(-c2ccccc2)c(C(=O)OCc2ccccc2)c1C#Cc1ccccc1 [Compound 43] | 11.6 ± 4.8 | – | 2.75 ± 0.78 | 4.2 | – | – | – | rA2A percentage of specific binding displaced (A2A adenosine receptors; Table 2, at 10^−4 M): 43 ± 20% (10^−4)
